Experimental data: patent publication US6576642B2, “Diamide compounds and compositions containing the same” (Kowa Co., Ltd., priority 1996, dated 2003)

Tested on: production of IgE antibody
Assay: Evaluation of inhibitory effect on production of IgE antibody (mouse spleen B cells cultured with LPS and IL-4, IgE in supernatant by ELISA)
Assay type: cell-based
Conditions: test agent at 10^-5 M; mouse (Balb/C) B cells, LPS + mouse IL-4, IgE in culture supernatant by ELISA
Protocol: Evaluation of inhibitory effect on production of IgE antibody:
A spleen was enucleated from a mouse (Balb/C, male, aged 8 weeks) and shredded in 0.3% BSA/HBSS to prepare single cells by means of a 200-mesh screen. Further, the single cells were hemolyzed by 0.75% ammonium chloride-17 mM Tris solution to prepare a splenocyte suspension (1×10^7/ml) using RPMI 1640 medium/25 mM HEPES/0.3% BSA. After the suspension was reacted with a mouse anti-mouse Thy-1.2 monoclonal antibody (product of Cedarlane Co.) at 4° C. for 1 hour, the reaction mixture was centrifuged, and the sediment cells were suspended again (1×10^7/ml, RPMI/HEPES/BSA). After the suspension was then reacted with a low-cytotoxic rabbit complement (product of Cedarlane Co.) at 37° C. for 1 hour, killed cells were removed by specific gravity centrifugation using lympholyte M (product of Cedarlane Co.) to obtain a B cell fraction as viable cells.
After B cells (10^5/0.2 ml/well) were cultured for a day together with LPS (E. coli 026:B6, product of DIFCO Co.) using a 96-well plate, mouse IL-4 (product of Genzyme Co.) was added to conduct culture further for 7 days.
Each test was added on the first day of the culture, and the amount of IgE in a culture supernatant was meausred by ELISA after the culture, thereby calculating out the inhibitory effect of the agent on the production of an IgE antibody.

Structure (SMILES)	Inhibitory effect on production of IgE (%)
COc1cc(/C=C/C=C/C(=O)NCc2ccc(CNC(=O)/C=C/C=C/c3cc(OC)c(OC)c(OC)c3)cc2)cc(OC)c1OC [Example 22, N,N′-bis[5-(3,4,5-trimethoxyphenyl)-penta-(2E,4E)-dienoyl]-1,4-bis(aminomethyl)benzene]	90
COc1cc(/C=C/C=C/C(=O)N[C@@H]2CCCC[C@H]2NC(=O)/C=C/C=C/c2cc(OC)c(OC)c(OC)c2)cc(OC)c1OC (relative stereo) [Example 15, trans-N,N′-bis[5-(3,4,5-trimethoxy-phenyl)penta-(2E,4E)-dienoyl]-1,2-diaminocyclohexane]	100
COc1cc(/C=C/C=C/C(=O)Nc2ccccc2NC(=O)/C=C/C=C/c2cc(OC)c(OC)c(OC)c2)cc(OC)c1OC [Example 26, N,N′-bis[5-(3,4,5-trimethoxyphenyl)-penta-(2E,4E)-dienoyl]-1,2-diaminobenzene]	85
COc1cc(/C=C/C=C/C(=O)N(C)CCCCCCN(C)C(=O)/C=C/C=C/c2cc(OC)c(OC)c(OC)c2)cc(OC)c1OC [Example 5, N,N′-bis[5-(3,4,5-trimethoxyphenyl)-penta-(2E,4E)-dienoyl]-N,N′-dimethyl-1,6-diaminohexane]	90
COc1cc(/C=C/C=C/C(=O)Nc2cccnc2NC(=O)/C=C/C=C/c2cc(OC)c(OC)c(OC)c2)cc(OC)c1OC [Example 38, 2,3-bis[5-(3,4,5-trimethoxyphenyl)-penta-(2E,4E)-dienoylamino]pyridine]	80
